Key:
[1] = system: B. subtilis 1579; assay: National Antimicrobial Resistance Monitoring System (NARMS) panel screening, MIC in […] 96-well plate; assay type: cell-based, Bacillus subtilis; design: Minimum Inhibitory Concentrations (MIC), 1579a / Minimum Inhibitory Concentrations (MIC), 1579b: unit not given here; conditions: for MIC interpretation (susceptible/intermediate/resistant), 1579a / Minimum Inhibitory Concentrations (MIC), 1579a: duplicate a; for MIC interpretation (susceptible/intermediate/resistant), 1579a / MIC interpretation (susceptible/intermediate/resistant), 1579b: CLSI M45 Bacillus spp. or NARMS Enterococcus breakpoints; for Minimum Inhibitory Concentrations (MIC), 1579a / Minimum Inhibitory Concentrations (MIC), 1579b: Mueller-Hinton broth, 37° C., read at 18 hours; for MIC interpretation (susceptible/intermediate/resistant), 1579b / Minimum Inhibitory Concentrations (MIC), 1579b: duplicate b
Method: Methods. […] A sterile swab was used to take a portion of the pellet and resuspended in sterile ddH2O tubes; a 0.5 McFarland standard was used to determine the optimal dilution. 15 microliters of the ddH2O was transferred into the 5 mL tubes of Mueller-Hinton broth and the mixture was vortexed and poured into a sterile boat. A p200 multi-channel pipette was used to transfer 50 microliters into each well of the […] 96-well microtiter plate (CMV3AGPF) plate (FIG. 3) and sealed. The plates were incubated at 37° C. overnight. The plates were removed at 18 hours and each well was given a result of either positive or negative depending on if there was any growth in the well.

[2] = system: Bovine Aortic Endothelial Cells (BAEC); assay: Inflammatory marker gene expression in LPS stimulated bovine endothelial cells (qPCR); assay type: cell-based; design: Cox-2 gene expression: dose or concentration left out as unconfirmed; conditions: LPS stimulation, 6 hours, qPCR vs GAPDH
Method: To determine potential mode of action of PCA, in vitro studies were performed using Bovine Aortic Endothelial Cells (BAEC). Stress was induced in mammalian endothelial cells using a lipopolysaccharide (LPS) model, which causes an inflammatory response through inflammatory cytokine, NO and prostaglandin release. After 6 hours, cells were lysed and cellular RNA was recovered using Direct-zol RNA MiniPrep Plus kit (Zymo Research) following the manufacturer's instructions. RNA was converted to cDNA using the QuantiNova Reverse Transcription Kit (Qiagen). Gene expression was then quantified using the QuantiTect SYBR Green PCR kit with primers specific for inflammatory markers. Inducible nitric oxide expression was screened using primers iNOSF ([…], SEQ ID NO: 7) and iNOSR ([…], SEQ ID NO: 8), Cyclo-oxygenase 2 primers, COX2F ([…], SEQ ID NO: 9) and COX2R ([…], SEQ ID NO: 10), and Interleukin-6 primers IL6F ([…], SEQ ID NO: 11) and IL6R ([…], SEQ ID NO: 12) compared against the house keeping gene GAPDH, primers GAPDH-F ([…], SEQ ID NO: 13) and GAPDH-R ([…], SEQ ID NO: 14). Quantitative PCR reactions were set up in 20 μl volumes as per the manufacturer's recommendations (Qiagen). Thermocycler conditions started with a 15 min denaturation at 95° C. followed by 40 cycles of denaturation at 95° C. for 15 seconds, annealing at 60° C. for 30 seconds and extension at 60° C. for 30 seconds before a melt curve.

Q: How did the “MIC interpretation (susceptible/intermediate/resistant), 1579a” value [1] turn out when Penicillin was run?
A: S

Q: What about the “Minimum Inhibitory Concentrations (MIC), 1579a” value [1] of the same molecule?
A: 1

Q: What about the “MIC interpretation (susceptible/intermediate/resistant), 1579b” value [1] of the same molecule?
A: S

Q: What about the “Minimum Inhibitory Concentrations (MIC), 1579b” value [1] of the same molecule?
A: 0.5

Q: What does the source list for `CCCCCCCCCC(=O)N[C@@H](Cc1c[nH]c2ccccc12)C(=O)N[C@H](CC(N)=O)C(=O)N[C@@H](CC(=O)O)C(=O)N[C@@H]1C(=O)NCC(=O)N[C@@H](CCCN)C(=O)N[C@@H](CC(=O)O)C(=O)N[C@H](C)C(=O)N[C@@H](CC(=O)O)C(=O)NCC(=O)N[C@H](CO)C(=O)N[C@@H]([C@H](C)CC(=O)O)C(=O)N[C@@H](CC(=O)c2ccccc2N)C(=O)O[C@@H]1C` [Daptomycin]?
A: MIC interpretation (susceptible/intermediate/resistant), 1579a [1]: S; MIC interpretation (susceptible/intermediate/resistant), 1579b [1]: S

Q: For `CN[C@H](CC(C)C)C(=O)N[C@H]1C(=O)N[C@@H](CC(N)=O)C(=O)N[C@H]2C(=O)N[C@H]3C(=O)N[C@H](C(=O)N[C@H](C(=O)O)c4cc(O)cc(O)c4-c4cc3ccc4O)[C@H](O)c3ccc(c(Cl)c3)Oc3cc2cc(c3O[C@@H]2O[C@H](CO)[C@@H](O)[C@H](O)[C@H]2O[C@H]2C[C@](C)(N)[C@H](O)[C@H](C)O2)Oc2ccc(cc2Cl)[C@H]1O` [Vancomycin], which “MIC interpretation (susceptible/intermediate/resistant), 1579a” value [1] is on record?
A: S

Q: And the “MIC interpretation (susceptible/intermediate/resistant), 1579b” value [1]?
A: S

Q: With Quinupristin/dalfopristin as the molecule, how does the “Minimum Inhibitory Concentrations (MIC), 1579a” value [1] read?
A: 4

Q: What about the “Minimum Inhibitory Concentrations (MIC), 1579b” value [1] of the same molecule?
A: 32

Q: How did the “MIC interpretation (susceptible/intermediate/resistant), 1579a” value [1] turn out when `CN(C)c1cc(NC(=O)CNC(C)(C)C)c(O)c2c1C[C@H]1C[C@H]3[C@H](N(C)C)C(O)=C(C(N)=O)C(=O)[C@@]3(O)C(O)=C1C2=O` [Tigercycline] was run?
A: S

Q: What about the “MIC interpretation (susceptible/intermediate/resistant), 1579b” value [1] of the same molecule?
A: S

Q: Which IL-6 expression ([2]; 1 g/ml and 10 µg/ml PCA) does the source give for `O=C(O)c1ccc(O)c(O)c1` [PCA, protocatechuic acid] here?
A: dose dependently decreased

Q: And the iNOS gene expression ([2]; 1 g/ml and 10 µg/ml PCA)?
A: decreased

Q: And the Cox-2 gene expression ([2]; PCA)?
A: decreased

Q: Which results are given for Gentamycin?
A: MIC interpretation (susceptible/intermediate/resistant), 1579a [1]: S; Minimum Inhibitory Concentrations (MIC), 1579a [1]: 128; MIC interpretation (susceptible/intermediate/resistant), 1579b [1]: S; Minimum Inhibitory Concentrations (MIC), 1579b [1]: 128
